# Entries after “also recorded” stand apart in the source; their conditions may differ.
# Legend:
# Assay type in all cases: in vivo, LE rats
# [1] = system: LE rat self-administration model; assay: Drug (WIN55,212-2) and environmental cue-induced relapse test in self-administration model; conditions: rimonabant 2 mg/kg, implants 4 tablets/rat
# Method: The rats received 2 h of environmental regression again. During the regression, only the spatial environment during the self-administration training was presented, without other clues such as lights and pump sounds as well as drug injections. The computer automatically recorded the number of behavioral responses of rats, and the regression was continued until reaching the criteria.
# In the rimonabant group, rats were administered the rimonabant injection (2 mg/kg, ip) 15 min before the test through intraperitoneal injection at a dose of 2 mg per kilogram of body weight. In the control group, rats were administered normal saline 15 min before the test. In the implant administration groups, there would be no administration. All rats were administered cannabis (WIN55,212-2 injection 0.3 mg/kg, ip) through intraperitoneal injection at a dose of […] of body weight, and then a 2-h drug and environmental cue-induced relapse test was immediately performed. The cues were consistent with those of self-administration training, including levers and syringe pump sound, but no drug in the syringe pump. The number of injections and effective lever pressing data were recorded by the computer.
# In the control group, rats were administered normal saline 15 min before the test, and in the implant groups, there would be no administration. All rats were administered WIN55,212-2 (0.3 mg/kg, i.p) through intraperitoneal administration, and then a 2-h drug and environmental cue-induced relapse test was immediately performed. The cues were consistent with those of self-administration training, including levers and syringe pump sound, but no drug in the syringe pump. The number of injections and effective lever pressing data were recorded by the computer.
# [2] = system: LE rat self-administration; assay: Addiction formation: WIN55,212-2 self-administration training
# Method: (§1) In each self-administration process, the effective lever was activated, and the injection system performed automatic administration ([…]). Each injection was about 0.1 mL, with a duration of 4 s-6 s. Meanwhile, each injection would be accompanied by the effective lever light turning on for 10 s and the room light turning off for 20 s. […] Data of activating the ineffective lever was recorded, but no drug injection was given. During the training, the computer automatically recorded the number of effective and ineffective lever presses and the number of injections. During the training, food was restricted to 12 g.
# In the control group and rimonabant group, sham operations were performed. After 3 days of postoperative care, addiction formation training was started on the fourth day.
# In the control group and rimonabant group, rats were administered the corresponding compound 15 min before the daily training. The rimonabant was at a dosage of 2 mg/kg, i.p. In the control group, rats were administered normal saline, and in the implant administration groups, there would be no administration. The training operation was the same as the self-administration training in example 1. During the training, the computer automatically recorded the number of effective and ineffective lever presses and the number of injections. During the training, food was restricted to 12 g.
# [3] = system: LE rat self-administration model; assay: Environmental cue-induced relapse test in WIN55,212-2 self-administration model; conditions: rimonabant 2 mg/kg, implants 4 tablets/rat
# Method: as §1
# [4] = system: LE rat self-administration; assay: Regression of drug-seeking behavior after self-administration training
# Method: After the establishment of the self-administration model, the rats received 2 h of environmental regression for each round of regression training. During the regression, only the spatial environment and lever during the training were presented, without other clues such as lights and pump sounds as well as drug injections. The computer automatically recorded the number of behavioral responses of rats, and the rats reached the regression criteria (i.e., the total number of effective lever presses decreased to 20% of the total number of effective lever presses on the first day of the regression training or less than 10 times).
# [5] = 2 h test after WIN55,212-2 ip, n = 10
# [6] = re-regression before cue + drug test, n = 10
# [7] = female LE rats, rimonabant 2 mg/kg, implants 4 tablets/rat, n = 10
# [8] = 2 h environmental cue-induced relapse test, n = 10
# [9] = last regression before cue test, n = 10
structure (smiles),measurement,setting,value
Cc1c(C(=O)NN2CCCCC2)nn(-c2ccc(Cl)cc2Cl)c1-c1ccc(Cl)cc1 [Rimonabant],"Number of effective lever presses, Cue + drug priming",[1]; [5],63.50 ± 16.15
same,"Number of ineffective lever presses, Cue + drug priming",[1]; [5],8.10 ± 2.08
same,"Number of effective lever presses, Re-Ext",[1]; [6],10.30 ± 2.72
same,"Number of ineffective lever presses, Re-Ext",[1]; [6],5.20 ± 3.0
same,"cue and drug-induced relapse behavior (number of effective lever presses compared with the control group), in words",[1],no significant inhibition effect; also recorded: not significant
same,"inhibition of the increase in the number of effective lever presses caused by addiction formation of win55,212-2, in words",[2]; compared with the control group,significantly inhibited; also recorded: significant inhibition effect
same,Addiction formation (26 days): Number of effective lever presses,[2]; [7],45.70 ± 8.21
same,Addiction formation (26 days): Number of ineffective lever presses,[2]; [7],9.49 ± 1.05
same,"Number of effective lever presses, Cue priming",[3]; [8],57.70 ± 10.27
same,"Number of ineffective lever presses, Cue priming",[3]; [8],12.10 ± 3.33
same,"Number of effective lever presses, Last-Ext",[3]; [9],6.80 ± 1.62
same,"Number of ineffective lever presses, Last-Ext",[3]; [9],3.10 ± 0.86
same,"cue-induced relapse behavior (number of effective lever presses compared with the control group), in words",[3],no significant inhibition effect; also recorded: not significant
same,"effect on the regression process of cannabis addiction, in words",[4]; compared with other groups,may accelerate the regression process and reduce the regression days
same,Regression (13 sessions): First stabilization,[4]; [7],7 days
same,Regression (13 sessions): Number of effective lever presses,[4]; [7],9.27 ± 2.21
